US12378211B2, “Carbonic anhydrase inhibitors and antibiotics against multidrug resistant bacteria” (Purdue Research Foundation, priority 2018, dated 2025)
In brackets after ≈: the same amount, converted by molar mass. Read-outs that look alike come from different tables or passages of the source. Values belong to the molecule of their own block, whether it stands above or below them.

Key:
[1] = tested on: Enterococcus faecalis-S613 HM-334; test: MIC in presence of 4% human serum albumin; type: cell-based; conditions: TSB supplemented with 4% human serum albumin
Description: (§1) The minimum inhibitory concentrations (MICs) of CAIs were tested against vancomycin resistant Enterococcus faecalis—S613 HM 334 strain as per the guidelines provided by the Clinical and Laboratory Standards Institute (CLSI). The selected strain was streaked on Tryptic Soy Agar (TSA) plate and let grow for 24 hours at 37° C. Afterwards, a bacterial solution equivalent to 0.5 McFarland standard was prepared and diluted in tryptone soy broth (TSB) supplemented with 4% human serum albumin (HAS) to achieve a bacterial concentration of about 5×10^5 CFU/mL and seeded in 96-well well plates. Compounds and control drugs were added in the first row of the 96-well plates and serially diluted along the plates. Plates were then incubated aerobically at 37° C. for 18-20 hours. MICs reported in table (6) are the minimum concentration of the compounds/control drugs that could inhibit completely the visual growth of the bacteria.

[2] = tested on: Enterococcus faecium Patient #2-1-NR-31909; test: MIC of CAIs in BHIB and TSB; type: cell-based
Description: as §1, with “against clinical isolates of vancomycin sensitive and” for “against”, “resistant Enterococci strains” for “resistant Enterococcus faecalis—S613 HM 334 strain”, “selected strains of Enterococci were” for “selected strain was”, “(TSA) plates” for “(TSA) plate”, “(TSB) or brain heart infusion broth (BHIB)” for “(TSB) supplemented with 4% human serum albumin (HAS)”, “in Table 5” for “in table (6)”

[3] = tested on: Enterococcus fecalis Strain SF 24397 NR31970; test: MIC of CAIs in BHIB and TSB; type: cell-based
Description: as §1, with “against clinical isolates of vancomycin sensitive and” for “against”, “resistant Enterococci strains” for “resistant Enterococcus faecalis—S613 HM 334 strain”, “selected strains of Enterococci were” for “selected strain was”, “(TSA) plates” for “(TSA) plate”, “(TSB) or brain heart infusion broth (BHIB)” for “(TSB) supplemented with 4% human serum albumin (HAS)”, “in Table 5” for “in table (6)”

[4] = tested on: Enterococcus faecium E417-HM-965; test: MIC of CAIs in BHIB and TSB; type: cell-based
Description: as §1, with “against clinical isolates of vancomycin sensitive and” for “against”, “resistant Enterococci strains” for “resistant Enterococcus faecalis—S613 HM 334 strain”, “selected strains of Enterococci were” for “selected strain was”, “(TSA) plates” for “(TSA) plate”, “(TSB) or brain heart infusion broth (BHIB)” for “(TSB) supplemented with 4% human serum albumin (HAS)”, “in Table 5” for “in table (6)”

[5] = tested on: Enterococcus faecalis—S613 HM-334; test: MIC of CAIs in BHIB and TSB; type: cell-based
Description: The minimum inhibitory concentrations (MICs) of CAIs were tested against clinical isolates of vancomycin sensitive and vancomycin resistant Enterococci strains as per the guidelines provided by the Clinical and Laboratory Standards Institute (CLSI). The selected strains of Enterococci were streaked on Tryptic Soy Agar (TSA) plates and let grow for 24 hours at 37° C. Afterwards, a bacterial solution equivalent to 0.5 McFarland standard was prepared and diluted in tryptone soy broth (TSB) or brain heart infusion broth (BHIB) to achieve a bacterial concentration of about 5×10^5 CFU/mL and seeded in 96-well well plates. Compounds and control drugs were added in the first row of the 96-well plates and serially diluted along the plates. Plates were then incubated aerobically at 37° C. for 18-20 hours. MICs reported in Table 5 are the minimum concentration of the compounds/control drugs that could inhibit completely the visual growth of the bacteria. The MIC values of CAIs against the tested VRE strains were higher in BHIB than in TSB. This may be due to binding of these drugs to proteins. […] They inhibited the VRE strains at MIC values ranging from 1 to 4 μg/mL.

[6] = tested on: Staphylococcus epidermidis NRS 101; test: MIC against Staphylococci, broth microdilution; type: cell-based; conditions: Staphylococcus epidermidis, NRS101
Description: (§2) The minimum inhibitory concentrations (MICs) of the compounds and control drugs were determined using the broth microdilution method, according to guidelines outlined by the Clinical and Laboratory Standards Institute (CLSI) 1. Staphylococci strains were grown aerobically overnight on tryptone soya agar plates at 37° C., afterwards a bacterial solution equivalent to 0.5 McFarland standard was prepared and diluted in tryptone soy broth (TSB) to achieve a bacterial concentration of about 5×10^5 CFU/mL and seeded in 96-well well plates. Compounds and control drugs were added in the first row of the 96-well plates and serially diluted along the plates. Plates were then incubated aerobically at 37° C. for 18-20 hours. MICs reported in Table 2 are the minimum concentration of the compounds/control drugs that could inhibit completely the visual growth of the bacteria.

[7] = tested on: MRSA NRS 384 (MRSA USA300); test: MIC against Staphylococci, broth microdilution; type: cell-based, Staphylococcus aureus; conditions: Staphylococcus aureus
Description: as §2

[8] = tested on: Enterococcus faecium Patient #2-1-NR-31909; test: MIC, broth microdilution in TSB; type: cell-based; conditions: Enterococcus faecium
Description: as §2, with “Institute (CLSI). Enterococci” for “Institute (CLSI) 1. Staphylococci”, “Table 1” for “Table 2”

[9] = tested on: Enterococcus fecalis Strain SF 24397 NR31970; test: MIC, broth microdilution in TSB; type: cell-based; conditions: Enterococcus
Description: as §2, with “Institute (CLSI). Enterococci” for “Institute (CLSI) 1. Staphylococci”, “Table 1” for “Table 2”

[10] = tested on: Enterococcus fecalis Strain MMH594-NR31975; test: MIC, broth microdilution in TSB; type: cell-based; conditions: Enterococcus
Description: as §2, with “Institute (CLSI). Enterococci” for “Institute (CLSI) 1. Staphylococci”, “Table 1” for “Table 2”

[11] = tested on: Enterococcus faecium E417-HM-965; test: MIC, broth microdilution in TSB; type: cell-based; conditions: Enterococcus faecium
Description: as §2, with “Institute (CLSI). Enterococci” for “Institute (CLSI) 1. Staphylococci”, “Table 1” for “Table 2”

[12] = tested on: Enterococcus faecium Patient #3-1 NR-31912; test: MIC, broth microdilution in TSB; type: cell-based; conditions: Enterococcus faecium
Description: as §2, with “Institute (CLSI). Enterococci” for “Institute (CLSI) 1. Staphylococci”, “Table 1” for “Table 2”

[13] = tested on: Enterococcus faecalis—S613 HM-334; test: MIC, broth microdilution in TSB; type: cell-based; conditions: Enterococcus
Description: as §2, with “Institute (CLSI). Enterococci” for “Institute (CLSI) 1. Staphylococci”, “Table 1” for “Table 2”

[14] = tested on: Enterococcus fecalis Strain SF 28073-NR31972; test: MIC, broth microdilution in TSB; type: cell-based; conditions: Enterococcus
Description: as §2, with “Institute (CLSI). Enterococci” for “Institute (CLSI) 1. Staphylococci”, “Table 1” for “Table 2”

[15] = tested on: Enterococcus fecalis Strain SF24413 NR31971; test: MIC, broth microdilution in TSB; type: cell-based; conditions: Enterococcus
Description: as §2, with “Institute (CLSI). Enterococci” for “Institute (CLSI) 1. Staphylococci”, “Table 1” for “Table 2”

[16] = tested on: Bacteroides fragilis—CL07T00C01 HIM-709; test: MIC against human normal gut microbiota; type: cell-based; conditions: Bacteroides, 48 h
Description: (§3) Three different bacterial strains were used in this experiment; Bifidobacterium (anaerobic Gram positive bacteria), Bacteroides (anaerobic Gram negative bacteria) and Lactobacillus (microaerophilic Gram positive bacteria). Bifidobacterium and Bacteroides were first grown for 48 hours at 37° C., anaerobically using brain heart infusion supplemented (BHIS) agar (Brain heart infusion agar supplemented with hemin, vitamin K and L-cysteine). Lactobacillus was cultivated on MRS agar and incubated in presence of 5% CO2 for 48 hours at 37° C. Each bacterium was suspended in phosphate buffered saline (PBS) to produce a suspension with optical density that matches 0.5 McFarland standard and diluted in brain heart infusion supplemented broth (for Bifidobacterium and Bacteroides) or in MRS broth (for Lactobacillus) to achieve bacterial concentration of approximately 5×10^5 CFU/ml. Bacteria were then seeded in 96-well plates containing serial dilutions of the compounds and incubated as mentioned previously for 48 hours.

[17] = tested on: Bacteroides dorei—CL02T12C06 HM-719; test: MIC against human normal gut microbiota; type: cell-based; conditions: Bacteroides, 48 h
Description: as §3

[18] = tested on: Lactobacillus gasseri EX336960VC03 HIM-400; test: MIC against human normal gut microbiota; type: cell-based; conditions: Lactobacillus gasseri, 48 h
Description: as §3

[19] = tested on: Lactobacillus casei ATCC 334; test: MIC against human normal gut microbiota; type: cell-based; conditions: Lacticaseibacillus casei, ATCC334, 48 h
Description: as §3

[20] = tested on: Bifidobacterium longum subsp. Longum—44B HM 845; test: MIC against human normal gut microbiota; type: cell-based; conditions: Bifidobacterium longum, 48 h
Description: as §3

[21] = tested on: Bifidobacterium breve—JCP7499 HIM 1120; test: MIC against human normal gut microbiota; type: cell-based; conditions: Bifidobacterium, 48 h
Description: as §3

[22] = Enterococcus, TSB, Table 5, read-out: MIC

MIC ([1]; Enterococcus, read-out: MIC): > 256 mg/L
MIC ([2]; Enterococcus faecium, BHIB, read-out: MIC): > 128 mg/L
MIC ([2]; Enterococcus faecium, TSB, Table 5, read-out: MIC): 4 mg/L
MIC ([3]; Enterococcus, BHIB, read-out: MIC): > 128 mg/L
MIC [3, 22]: 2 mg/L
MIC ([4]; Enterococcus faecium, E417HM965, BHIB, read-out: MIC): 16 mg/L
MIC ([4]; Enterococcus faecium, E417HM965, TSB, Table 5, read-out: MIC): 2 mg/L
MIC ([5]; Enterococcus, BHIIB, read-out: MIC): > 128 mg/L
MIC [5, 22]: 2 mg/L
SMILES: CCN[C@H]1CN(CCCOC)S(=O)(=O)c2sc(S(N)(=O)=O)cc21 [Brinzolamide]

MIC [1]: >256 mg/L
MIC ([2]; BHIB): >128 mg/L
MIC ([2]; TSB, Table 5): 2 mg/L
MIC ([3]; BHIB): >128 mg/L
MIC ([3]; TSB, Table 5): 16 mg/L
MIC ([4]; BHIB): 16 mg/L
MIC ([4]; TSB, Table 5): 1 mg/L
MIC ([5]; BHIIB): >128 mg/L
MIC ([5]; TSB, Table 5): 16 mg/L
SMILES: NS(=O)(=O)c1cc(Cl)c(Cl)c(S(N)(=O)=O)c1 [Dichlophenamide]

SMILES: CN[C@H](CC(C)C)C(=O)N[C@H]1C(=O)N[C@@H](CC(N)=O)C(=O)N[C@H]2C(=O)N[C@H]3C(=O)N[C@H](C(=O)N[C@H](C(=O)O)c4cc(O)cc(O)c4-c4cc3ccc4O)[C@H](O)c3ccc(c(Cl)c3)Oc3cc2cc(c3O[C@@H]2O[C@H](CO)[C@@H](O)[C@H](O)[C@H]2O[C@H]2C[C@](C)(N)[C@H](O)[C@H](C)O2)Oc2ccc(cc2Cl)[C@H]1O [Vancomycin, reference compound]
MIC [6]: 4 mg/L (≈ 2.76 µM)
MIC [7]: 1 mg/L (≈ 0.69 µM)
MIC ([2]; Enterococcus faecium): > 128 mg/L
MIC ([2]; TSB, Table 5): >128 mg/L
MIC ([3]; Enterococcus): 2 mg/L
MIC ([3]; TSB, Table 5): 2 mg/L
MIC ([4]; Enterococcus faecium, E417HM965): > 128 mg/L
MIC ([4]; TSB, Table 5): >128 mg/L
MIC [8]: > 64 mg/L
MIC ([8]; read-out: MIC in TSB): > 64 mg/L
MIC [9]: 2 mg/L (≈ 1.38 µM)
MIC ([9]; read-out: MIC in TSB): 2 mg/L (≈ 1.38 µM)
MIC [10]: 2 mg/L (≈ 1.38 µM)
MIC ([10]; read-out: MIC in TSB): 2 mg/L (≈ 1.38 µM)
MIC ([11]; E417HM965): > 64 mg/L
MIC ([11]; E417HM965, read-out: MIC in TSB): > 64 mg/L
MIC [12]: > 64 mg/L
MIC ([12]; read-out: MIC in TSB): > 64 mg/L
MIC [13]: > 64 mg/L
MIC ([13]; read-out: MIC in TSB): > 64 mg/L
MIC [14]: > 64 mg/L
MIC ([14]; read-out: MIC in TSB): > 64 mg/L
MIC [15]: 32 mg/L (≈ 22.1 µM)
MIC ([15]; read-out: MIC in TSB): 32 mg/L (≈ 22.1 µM)
MIC ([5]; Enterococcus): > 128 mg/L
MIC ([5]; TSB, Table 5): >128 mg/L
MIC [16]: 64 mg/L (≈ 44.2 µM)
MIC [17]: 64 mg/L (≈ 44.2 µM)
MIC [18]: > 64 mg/L
MIC [19]: > 64 mg/L
MIC [20]: 8 mg/L (≈ 5.52 µM)
MIC [21]: 8 mg/L (≈ 5.52 µM)
